A short description of data set [1]: Kinetic solubility of the compound at pH 6.8. It counts as physicochemical. To be noted: buffer, read-out: Kinetic_solubility.
A short description of data set [2]: Kinetic solubility of the compound at pH 1.2. Format: physicochemical. As to conditions: buffer, read-out: Kinetic_solubility.
Data set [3] deals with T1, Sodium channel protein type 9 subunit alpha (Homo sapiens, UniProt Q15858). The data set is described as follows: Inhibition of Nav1.7 (unknown origin) expressed in CHO cells after 45 mins by FLIPR assay. Format: cell-based.
T1 sequence (Q15858 whole entry): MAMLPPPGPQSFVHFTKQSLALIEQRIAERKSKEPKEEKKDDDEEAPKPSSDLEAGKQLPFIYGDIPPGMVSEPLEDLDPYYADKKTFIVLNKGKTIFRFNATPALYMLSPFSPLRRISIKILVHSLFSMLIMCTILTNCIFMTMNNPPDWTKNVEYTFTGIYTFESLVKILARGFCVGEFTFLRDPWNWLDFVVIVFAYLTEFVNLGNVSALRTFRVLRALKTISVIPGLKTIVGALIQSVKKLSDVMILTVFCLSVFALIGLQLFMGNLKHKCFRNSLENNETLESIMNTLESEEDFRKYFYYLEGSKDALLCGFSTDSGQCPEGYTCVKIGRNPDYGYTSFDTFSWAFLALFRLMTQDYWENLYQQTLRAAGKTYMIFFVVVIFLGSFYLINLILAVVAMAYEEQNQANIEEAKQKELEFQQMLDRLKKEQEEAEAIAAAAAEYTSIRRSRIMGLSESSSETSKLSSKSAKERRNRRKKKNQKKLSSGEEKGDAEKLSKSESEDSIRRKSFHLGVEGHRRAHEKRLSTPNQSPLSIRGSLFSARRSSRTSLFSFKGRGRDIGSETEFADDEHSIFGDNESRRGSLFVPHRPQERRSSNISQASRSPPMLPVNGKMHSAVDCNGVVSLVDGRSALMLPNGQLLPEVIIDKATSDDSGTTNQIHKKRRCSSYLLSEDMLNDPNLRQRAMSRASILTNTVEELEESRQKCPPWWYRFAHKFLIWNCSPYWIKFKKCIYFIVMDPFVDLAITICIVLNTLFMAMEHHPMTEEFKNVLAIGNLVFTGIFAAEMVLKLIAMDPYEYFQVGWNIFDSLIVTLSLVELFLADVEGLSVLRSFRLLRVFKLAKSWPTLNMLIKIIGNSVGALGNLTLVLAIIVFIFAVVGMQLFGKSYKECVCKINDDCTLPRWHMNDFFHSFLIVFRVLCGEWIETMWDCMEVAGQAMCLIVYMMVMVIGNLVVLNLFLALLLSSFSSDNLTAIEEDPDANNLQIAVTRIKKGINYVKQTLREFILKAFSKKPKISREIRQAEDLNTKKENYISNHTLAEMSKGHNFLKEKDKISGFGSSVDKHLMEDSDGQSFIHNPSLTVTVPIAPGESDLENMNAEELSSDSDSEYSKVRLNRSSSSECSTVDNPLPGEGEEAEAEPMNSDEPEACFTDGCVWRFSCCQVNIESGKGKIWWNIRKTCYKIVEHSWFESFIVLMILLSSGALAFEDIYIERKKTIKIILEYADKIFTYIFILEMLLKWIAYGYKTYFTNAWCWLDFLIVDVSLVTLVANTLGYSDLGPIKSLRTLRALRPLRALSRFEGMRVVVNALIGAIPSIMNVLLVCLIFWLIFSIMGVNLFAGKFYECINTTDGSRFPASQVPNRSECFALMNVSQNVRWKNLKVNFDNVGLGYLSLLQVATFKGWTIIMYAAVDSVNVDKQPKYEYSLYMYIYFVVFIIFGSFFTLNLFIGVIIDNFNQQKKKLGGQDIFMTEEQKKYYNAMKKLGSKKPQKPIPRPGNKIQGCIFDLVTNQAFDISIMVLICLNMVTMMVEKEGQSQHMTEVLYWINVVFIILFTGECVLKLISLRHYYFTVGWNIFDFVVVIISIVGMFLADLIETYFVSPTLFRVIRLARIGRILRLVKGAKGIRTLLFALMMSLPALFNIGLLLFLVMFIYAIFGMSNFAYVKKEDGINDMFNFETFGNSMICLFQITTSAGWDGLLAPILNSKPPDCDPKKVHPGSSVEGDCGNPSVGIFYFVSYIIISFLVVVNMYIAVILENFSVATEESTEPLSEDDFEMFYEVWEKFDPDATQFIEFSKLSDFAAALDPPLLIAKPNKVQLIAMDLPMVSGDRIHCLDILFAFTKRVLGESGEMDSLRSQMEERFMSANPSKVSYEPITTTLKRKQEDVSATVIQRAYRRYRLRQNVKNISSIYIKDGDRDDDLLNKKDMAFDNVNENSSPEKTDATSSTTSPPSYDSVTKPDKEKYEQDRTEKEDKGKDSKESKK
Data set [4] concerns the target T1, Sodium channel protein type 9 subunit alpha. The data set is described as follows: Inhibition of Nav1.7 (unknown origin) by electrophysiological assay.
The nature of data set [5]: Tmax in Sprague-Dawley rat at 3 mg/kg, po. It counts as ADME, organism-based. To be noted: in vivo.
Data set [6] deals with MDR1. The data set is described as follows: Efflux ratio of permeability from basolateral to apical side over apical to basolateral side in MDCK cells expressing MDR1. As to conditions: dog. Format: ADME, cell-based, Canis lupus familiaris.
The nature of data set [7]: Cmax in Sprague-Dawley rat at 3 mg/kg, po. Format: ADME, organism-based. Further details: dose 3 mg/kg, route oral. To be noted: in vivo.
Data set [8] concerns MDR1. Kind of data set: Apparent permeability from basolateral to apical side in MDCK cells expressing MDR1. It counts as ADME, cell-based, Canis lupus familiaris. As to conditions: dog.
The next data set has as its target hERG (KCNH2) (Homo sapiens, UniProt Q12809). Kind of data set: Inhibition of human ERG at 1 uM.
The test system of data set [9] is MDR1. Kind of data set: Apparent permeability from apical to basolateral side in MDCK cells expressing MDR1. Format: ADME, cell-based, Canis lupus familiaris. To be noted: dog.
A short description of data set [10]: AUC in Sprague-Dawley rat at 3 mg/kg, po. Format: ADME, organism-based. To be noted: in vivo.

In brackets after ≈: the same amount, converted by molar mass.

Sequence of hERG (KCNH2) (Q12809 whole entry): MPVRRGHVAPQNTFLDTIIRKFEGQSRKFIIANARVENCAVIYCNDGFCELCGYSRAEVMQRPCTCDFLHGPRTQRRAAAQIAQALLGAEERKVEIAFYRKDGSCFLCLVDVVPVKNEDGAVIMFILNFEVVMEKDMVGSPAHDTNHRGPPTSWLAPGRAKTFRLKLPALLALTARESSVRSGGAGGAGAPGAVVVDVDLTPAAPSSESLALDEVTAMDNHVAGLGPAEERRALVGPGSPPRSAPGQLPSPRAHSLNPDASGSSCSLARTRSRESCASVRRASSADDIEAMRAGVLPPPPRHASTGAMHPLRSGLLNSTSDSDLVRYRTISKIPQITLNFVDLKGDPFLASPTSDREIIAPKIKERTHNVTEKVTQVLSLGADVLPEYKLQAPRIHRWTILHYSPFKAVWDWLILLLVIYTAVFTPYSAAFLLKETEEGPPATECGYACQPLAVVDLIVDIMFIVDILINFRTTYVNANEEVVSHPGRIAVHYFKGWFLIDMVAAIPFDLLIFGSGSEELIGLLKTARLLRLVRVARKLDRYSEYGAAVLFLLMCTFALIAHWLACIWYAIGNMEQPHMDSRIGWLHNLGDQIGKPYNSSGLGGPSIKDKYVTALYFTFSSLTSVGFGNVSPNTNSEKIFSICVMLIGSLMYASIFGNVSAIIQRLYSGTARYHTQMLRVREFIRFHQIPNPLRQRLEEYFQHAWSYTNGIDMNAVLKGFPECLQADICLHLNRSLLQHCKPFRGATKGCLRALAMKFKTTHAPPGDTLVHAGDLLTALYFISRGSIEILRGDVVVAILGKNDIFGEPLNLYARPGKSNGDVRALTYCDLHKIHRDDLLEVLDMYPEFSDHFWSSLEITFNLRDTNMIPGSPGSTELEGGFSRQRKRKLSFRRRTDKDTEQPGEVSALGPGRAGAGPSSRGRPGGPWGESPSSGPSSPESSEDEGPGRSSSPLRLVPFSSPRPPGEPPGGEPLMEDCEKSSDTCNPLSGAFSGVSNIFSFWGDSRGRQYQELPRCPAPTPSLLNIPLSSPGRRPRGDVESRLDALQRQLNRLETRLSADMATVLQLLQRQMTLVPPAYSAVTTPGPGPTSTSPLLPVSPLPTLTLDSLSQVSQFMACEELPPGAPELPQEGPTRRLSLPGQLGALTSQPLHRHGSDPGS

Turning to `NC(=O)c1cccc(-c2ccc3c(c2)CCCCN3c2ccc(C(F)(F)F)cc2)n1`, the figures for the solubility kinetic in data set [1] and in [2] were 0.02 µM (≈ 0.00823 µg/mL) and 0.03 µM (≈ 0.0123 µg/mL), respectively.
Turning to `NC(=O)c1cccc(-c2ccc3c(c2)OCCCN3c2ccc(C(F)(F)F)cc2)n1`, the solubility kinetic in data set [1] and in data set [2] was 0.08 µM (≈ 0.0331 µg/mL) in each case.
With `NC(=O)c1cccc(-c2ccc3c(c2)CNCCN3c2ccc(C(F)(F)F)cc2)n1`, the solubility kinetic in [1] is 0.59 µM (≈ 0.243 µg/mL); in data set [2], 18 µM (≈ 7.42 µg/mL).
As usually defined, the IC50 is the concentration that inhibits the measured activity by half. Read a low IC50 as inhibition by little substance. In [3], `CC(=O)N1CCN(c2ccc(C(F)(F)F)cc2)c2ccc(-c3cccc(C(N)=O)n3)cc2C1` had an IC50 of 380 nM.
A word on the Ki: it is a dissociation constant, usually derived from enzyme kinetics or from competition with a known ligand. Lower therefore signals a stronger hold on the target. Compound `CNC(=O)CN1CCN(c2ccc(C(F)(F)F)cc2)c2ccc(-c3cccc([C@H](O)CO)n3)cc2C1` came in with a Ki in data set [4] of 440 nM.
Usually Tmax stands for the time from dosing to the highest level. As usually defined, the efflux ratio is the permeability from basolateral to apical divided by that in the opposite direction, in the common usage. The Cmax is the peak of the concentration-time curve. A word on the Papp B→A: it is the apparent permeability from the basolateral to the apical side of a cell layer. As a reminder, the inhibition is the change of the read-out against control, counted positive when it falls. High values mean a strong effect, low ones a weak effect. As usually defined, the Papp A→B is the apparent permeability from the apical to the basolateral side of a cell layer. What is called AUC is concentration integrated over time. Consider `CC(=O)N1CCN(c2ccc(C(F)(F)F)cc2)c2ccc(-c3cccc([C@H](O)CO)n3)cc2C1`, for which the Tmax in data set [5] is 2.5 h. Further, the efflux ratio in the data set with MDR1 [6] was 31. Besides, the solubility kinetic in data set [1] was 39 µM (≈ 18.4 µg/mL); in data set [2] it was 80 µM (≈ 37.7 µg/mL). In addition, in [7], the Cmax is 94 ng/mL. Also, in the data set on MDR1 [8], the Papp B→A is 28.3 ×10⁻⁶ cm/s. Also, at 1 µM the inhibition against hERG (KCNH2) was 13.9%. The Papp A→B with MDR1 [9] is 0.9 ×10⁻⁶ cm/s. In addition, in data set [10], the AUC was 562 ng·h/mL.
For `CS(=O)(=O)N1CCN(c2ccc(C(F)(F)F)cc2)c2ccc(-c3cccc([C@H](O)CO)n3)cc2C1`, the Ki in [4] is 230 nM.
Regarding `NC(=O)N1CCN(c2ccc(C(F)(F)F)cc2)c2ccc(-c3cccc([C@H](O)CO)n3)cc2C1`, in data set [5], the time to peak (Tmax) is 2.5 h. The solubility kinetic was 1 µM (≈ 0.472 µg/mL) in data set [1] and 66 µM (≈ 31.2 µg/mL) in data set [2]. Also, the Cmax in [7] is 21 ng/mL. For the same compound, the inhibition at 1 µM against hERG (KCNH2) turned out to be 22.6%. In data set [10], the AUC came to 133 ng·h/mL.

Values taken from ChEMBL document CHEMBL3576839, “N-Aryl azacycles as novel sodium channel blockers” (Bioorg Med Chem Lett, 2015).
